From patent US9920061B2, “Imidazo[1,5-A]pyrimidinyl carboxamide compounds and their use in the treatment of medical disorders” (Lysosomal Therapeutics Inc., priority 2016, dated 2018)
Values after ≈ are worked out from the molar mass of the structure shown.

Experiments:
[1] = target: T1, glucocerebrosidase (Gcase) (Homo sapiens, UniProt P04062); assay: Glucocerebrosidase (Gcase) activation assay, 4-methylumbelliferyl-beta-D-glucopyranoside substrate, with saposin C; format: biochemical; settings: for activation at 0.1 µM: 0.1 μM test compound, read-out: Percent Gcase Activation 0.1 μM Test Compound; for activation at 1 µM: 1 μM test compound, read-out: Percent Gcase Activation 1 μM Test Compound
T1 sequence (P04062 40-536): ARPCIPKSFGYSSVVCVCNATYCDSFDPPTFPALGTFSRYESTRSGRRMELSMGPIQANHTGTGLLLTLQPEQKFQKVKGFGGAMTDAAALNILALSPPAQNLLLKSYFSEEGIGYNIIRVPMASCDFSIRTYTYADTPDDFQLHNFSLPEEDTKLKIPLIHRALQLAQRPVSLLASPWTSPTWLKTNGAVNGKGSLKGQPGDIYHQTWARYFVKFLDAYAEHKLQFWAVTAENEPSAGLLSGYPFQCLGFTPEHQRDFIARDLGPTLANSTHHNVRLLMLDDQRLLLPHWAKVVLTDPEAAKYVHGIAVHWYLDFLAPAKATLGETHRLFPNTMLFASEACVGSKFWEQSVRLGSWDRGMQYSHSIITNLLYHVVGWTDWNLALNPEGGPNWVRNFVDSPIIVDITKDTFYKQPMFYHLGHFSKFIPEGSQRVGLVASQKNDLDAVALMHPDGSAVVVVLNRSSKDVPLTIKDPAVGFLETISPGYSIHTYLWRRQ
Procedure, shortened: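 Compounds tested at 1.0 and 0.1 μM, then in 8-point 3-fold curves, were pre-incubated 30 min at room temperature with 10 nM GCase plus 100 nM saposin C in PS/triton micelles, pH 4.7. Reaction with substrate (2 mM in micelles before mixing) ran 15 min; stopped at pH 12.5, read at ex 365/em 440 nm.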

[2] = Compound solubility in water; format: physicochemical

| Compound | activation at 0.1 µM [1] | activation at 1 µM [1] | solubility [2] |
| --- | --- | --- | --- |
| CCc1cc(N2CCCC(F)(F)C2)nc2c(C(=O)NC(C3CC3)C(F)(F)F)ncn12 (stereo not drawn) [III-137] | 10 to 20% | > 60% | 12 µg/mL (≈ 27.8 µM) |
| Cc1cc(N2CCCC(F)(F)C2)nc2c(C(=O)NC(C3CC3)C(F)(F)F)ncn12 (stereo not drawn) [III-138] | > 20% | > 60% | 17.2 µg/mL (≈ 41.2 µM) |
| Cc1cc(N2CCC(F)(F)C2)nc2c(C(=O)NC(C3CC3)C(F)(F)F)ncn12 (stereo not drawn) [III-139] | > 20% | > 60% | 1.8 µg/mL (≈ 4.46 µM) |
| Cc1cc(-c2nc(Cl)cs2)nc2c(C(=O)NC(C)(C)C3CC3)ncn12 [III-140] | < 10% | < 30% | 0.8 µg/mL (≈ 2.13 µM) |
| Cc1cc(-c2ccns2)nc2c(C(=O)NC(C3CC3)C(F)(F)F)ncn12 (stereo not drawn) [III-141] | > 20% | > 60% | 18 µg/mL (≈ 47.2 µM) |
| Cc1cc(-n2ccc(Cl)n2)nc2c(C(=O)NC(C)(C)C3CC3)ncn12 [III-142] | < 10% | < 30% | 14.9 µg/mL (≈ 41.5 µM) |
| Cc1cc(-n2ccc(Cl)n2)nc2c(C(=O)NC(C3CC3)C(F)(F)F)ncn12 (stereo not drawn) [III-143] | 10 to 20% | > 60% | 4.2 µg/mL (≈ 10.5 µM) |
| Cc1cc(N2CCC(C)(C)C2=O)nc2c(C(=O)NC(C3CC3)C(F)(F)F)ncn12 (stereo not drawn) [III-144] | < 10% | 30 to 60% | 20.5 µg/mL (≈ 50.1 µM) |
| Cc1cc(-c2cccc3ocnc23)nc2c(C(=O)NC(C3CC3)C(F)(F)F)ncn12 (stereo not drawn) [III-145] | > 20% | > 60% | 1.6 µg/mL (≈ 3.85 µM) |
| COc1cccc(-c2cc(C)n3cnc(C(=O)NC(C)(C)C4CC4)c3n2)n1 [III-146] | > 20% | > 60% | 0.9 µg/mL (≈ 2.46 µM) |
| COc1cccc(-c2cc(C)n3cnc(C(=O)NC(C4CC4)C(F)(F)F)c3n2)n1 (stereo not drawn) [III-147] | > 20% | > 60% | 0.5 µg/mL (≈ 1.23 µM) |
| C#CC(C)(C)NC(=O)c1ncn2c(C)cc(-c3cccc(OC)n3)nc12 [III-148] | < 10% | 30 to 60% | 4.9 µg/mL (≈ 14 µM) |
| CCc1cc(-c2cccc(OC)n2)nc2c(C(=O)NC(C3CC3)C(F)(F)F)ncn12 (stereo not drawn) [III-149] | > 20% | > 60% | 0.7 µg/mL (≈ 1.67 µM) |
| Cc1cc(-c2cccc(C#N)c2)nc2c(C(=O)N[C@@H](C)C3CC3)ncn12 [III-150] | 10 to 20% | > 60% | 10.1 µg/mL (≈ 29.2 µM) |
| Cc1cc(-c2cccc(C#N)c2)nc2c(C(=O)NC(C)(C)C3CC3)ncn12 [III-151] | > 20% | > 60% | 4.3 µg/mL (≈ 12 µM) |
| Cc1cc(-c2cccc(C#N)c2)nc2c(C(=O)NC(C3CC3)C(F)(F)F)ncn12 (stereo not drawn) [III-152] | > 20% | > 60% | 3.8 µg/mL (≈ 9.51 µM) |
| Cc1cc(-c2ccccc2C#N)nc2c(C(=O)NC(C3CC3)C(F)(F)F)ncn12 (stereo not drawn) [III-153] | > 20% | > 60% | 0.5 µg/mL (≈ 1.25 µM) |
| Cc1cc(-c2ccccc2C(N)=O)nc2c(C(=O)NC(C3CC3)C(F)(F)F)ncn12 (stereo not drawn) [III-154] | < 10% | < 30% | 28.1 µg/mL (≈ 67.3 µM) |
| CCOc1cccc(-c2cc(C)n3cnc(C(=O)N[C@@H](C)C4CC4)c3n2)n1 [III-155] | < 10% | 30 to 60% | 1.7 µg/mL (≈ 4.65 µM) |
| CCOc1cccc(-c2cc(C)n3cnc(C(=O)NC(C)(C)C4CC4)c3n2)n1 [III-156] | < 10% | 30 to 60% | 0.8 µg/mL (≈ 2.11 µM) |
| C#CC(C)(C)NC(=O)c1ncn2c(C)cc(-c3cccc(OC)c3)nc12 [III-157] | > 20% | > 60% | 2.1 µg/mL (≈ 6.03 µM) |
| Cc1cc(OC2CC(F)(F)C2)nc2c(C(=O)NC(C3CC3)C(F)(F)F)ncn12 (stereo not drawn) [III-158] | < 10% | 30 to 60% | 21.9 µg/mL (≈ 54.2 µM) |
| Cc1cc(-c2cccc3ncoc23)nc2c(C(=O)NC(C3CC3)C(F)(F)F)ncn12 (stereo not drawn) [III-160] | > 20% | > 60% | 8.9 µg/mL (≈ 21.4 µM) |
| CCc1cc(-c2cccc(OC)c2)nc2c(C(=O)N[C@@H](C)C3CC3)ncn12 [III-161] | > 20% | > 60% | 1.8 µg/mL (≈ 4.94 µM) |
| Cc1cc(-c2cccc(Cl)c2)nc2c(C(=O)NC(C)(C)C3CC3)ncn12 [III-162] | > 20% | > 60% | 0.2 µg/mL (≈ 0.542 µM) |

| Compound | activation at 0.1 µM [1] | activation at 1 µM [1] | solubility [2] |
| --- | --- | --- | --- |
| Cc1cc(-c2cccc(F)c2)nc2c(C(=O)NC(C3CC3)C(F)(F)F)ncn12 (stereo not drawn) [III-163] | > 20% | > 60% | 0.4 µg/mL (≈ 1.02 µM) |
| C#CC(C)(C)NC(=O)c1ncn2c(C)cc(-c3cccc(F)c3)nc12 [III-164] | > 20% | > 60% | 4.5 µg/mL (≈ 13.4 µM) |
| CCc1cc(-c2ccns2)nc2c(C(=O)NC(C3CC3)C(F)(F)F)ncn12 (stereo not drawn) [III-165] | > 20% | > 60% | 4.7 µg/mL (≈ 11.9 µM) |
| CCc1cc(Oc2ccc(F)cc2)nc2c(C(=O)N[C@@H](C)C3CC3)ncn12 [III-166] | < 10% | 30 to 60% | 10.8 µg/mL (≈ 29.3 µM) |
| COc1cccc(-c2cc(C)n3cnc(C(=O)NC(C)C(F)(F)F)c3n2)c1 (stereo not drawn) [III-167] | > 20% | > 60% | 2.9 µg/mL (≈ 7.66 µM) |
| CCOc1cccc(-c2cc(C)n3cnc(C(=O)NC(C)C(F)(F)F)c3n2)c1 (stereo not drawn) [III-168] | > 20% | > 60% | 1.4 µg/mL (≈ 3.57 µM) |
| Cc1cc(-c2cccc(OC3CC3)c2)nc2c(C(=O)NC(C)C(F)(F)F)ncn12 (stereo not drawn) [III-169] | > 20% | > 60% | 0.7 µg/mL (≈ 1.73 µM) |
| COc1cc(F)cc(-c2cc(C)n3cnc(C(=O)NC(C4CC4)C(F)(F)F)c3n2)c1 (stereo not drawn) [III-170] | > 20% | > 60% | 0.1 µg/mL (≈ 0.237 µM) |
| COc1cc(-c2cc(C)n3cnc(C(=O)NC(C4CC4)C(F)(F)F)c3n2)ccc1F (stereo not drawn) [III-171] | > 20% | > 60% | 0.6 µg/mL (≈ 1.42 µM) |
| COc1cccc(-c2cc(C)n3cnc(C(=O)NC(C4CC4)C4CC4)c3n2)c1 [III-172] | > 20% | > 60% | 4.2 µg/mL (≈ 11.2 µM) |
| COc1cc(F)cc(-c2cc(C)n3cnc(C(=O)NC(C4CC4)C4CC4)c3n2)c1 [III-173] | > 20% | > 60% | 1.7 µg/mL (≈ 4.31 µM) |
| COc1cc(-c2cc(C)n3cnc(C(=O)NC(C4CC4)C4CC4)c3n2)ccc1F [III-174] | > 20% | > 60% | 0.3 µg/mL (≈ 0.761 µM) |
| COc1cc(-c2cc(C)n3cnc(C(=O)NC(C4CC4)C4CC4)c3n2)ccc1Cl [III-175] | 10 to 20% | > 60% | 0.2 µg/mL (≈ 0.487 µM) |
| Cc1cc(OC2CCC2)nc2c(C(=O)NC(C3CC3)C(F)(F)F)ncn12 (stereo not drawn) [III-176] | > 20% | > 60% | 5.5 µg/mL (≈ 14.9 µM) |
| Cc1cc(OC(C)C)nc2c(C(=O)NC(C3CC3)C(F)(F)F)ncn12 (stereo not drawn) [III-177] | 10 to 20% | 30 to 60% | 25.4 µg/mL (≈ 71.3 µM) |
| Cc1cc(OC(C)C)nc2c(C(=O)NC(C3CC3)C3CC3)ncn12 [III-178] | 10 to 20% | > 60% | 17.4 µg/mL (≈ 53 µM) |
| Cc1cc(OC2CC2)nc2c(C(=O)NC(C3CC3)C3CC3)ncn12 [III-179] | < 10% | 30 to 60% | 14.3 µg/mL (≈ 43.8 µM) |
| Cc1cc(OC2CCC2)nc2c(C(=O)NC(C3CC3)C3CC3)ncn12 [III-180] | 10 to 20% | > 60% | 23.3 µg/mL (≈ 68.4 µM) |
| COc1cccc(-c2cc(C)n3cnc(C(=O)NC(C4CC4)C(F)(F)F)c3n2)c1 (stereo not drawn) [III-182] | > 20% | > 60% | 1.5 µg/mL (≈ 3.71 µM) |
| Cc1cc(-c2cccc(F)c2)nc2c(C(=O)NC(C)(C)C(F)(F)F)ncn12 [III-183] | > 20% | > 60% | 0.6 µg/mL (≈ 1.58 µM) |
| COc1cccc(-c2cc(C)n3cnc(C(=O)NC(C)(C)C(F)(F)F)c3n2)c1 [III-184] | > 20% | > 60% | 4.3 µg/mL (≈ 11 µM) |
| Cc1cc(-c2cccc(Cl)c2)nc2c(C(=O)NC(C)(C)C(F)(F)F)ncn12 [III-185] | > 20% | > 60% | 3.7 µg/mL (≈ 9.32 µM) |
| C#CC(C)(C)NC(=O)c1ncn2c(C)cc(-c3cccc(OC4CC4)c3)nc12 [III-186] | > 20% | > 60% | 1.5 µg/mL (≈ 4.01 µM) |
| C#CC(C)(C)NC(=O)c1ncn2c(C)cc(-c3cc(F)cc(OC)c3)nc12 [III-187] | > 20% | > 60% | 0.9 µg/mL (≈ 2.46 µM) |
| C#CC(C)(C)NC(=O)c1ncn2c(C)cc(-c3cc(F)cc(F)c3)nc12 [III-188] | 10 to 20% | > 60% | 0.3 µg/mL (≈ 0.847 µM) |
